According to the OligoGym collection:
Values joined by “and” are separate entries in the source; they are usually repeats but may differ in a detail not shown here. Equal entries are not always repeated. After the bases stand the sugars from the 5' end (letter, count) and the backbone: PS all phosphorothioate, else s phosphorothioate and o phosphodiester by linkage. Methylation of C is not given here. e = 2'-O-(2-methoxyethyl) (MOE); k = constrained ethyl (cEt); d = 2'-deoxy (DNA)

Biological target: IRF4
Details: ASO, MM.1R, 0.0625 µM

Sequence | target mRNA inhibition
AGTTTAAGGGTTACGC (sugars k3 d10 k3, PS) | -2% and 15%
GGCGAGTTGGCACAAT (sugars k3 d10 k3, PS) | -13%
CATGGTATTTTTCCGT (sugars k3 d10 k3, PS) | 4%

Same assay, conditions: ASO, MM.1R, 0.074 µM

Sequence | target mRNA inhibition
AGTTTAAGGGTTACGC (sugars k3 d10 k3, PS) | 7%

Same assay, conditions: ASO, MM.1R, 0.222 µM

Sequence | target mRNA inhibition
AGTTTAAGGGTTACGC (sugars k3 d10 k3, PS) | 8%

Same assay, conditions: ASO, MM.1R, 0.25 µM

Sequence | target mRNA inhibition
GGCGAGTTGGCACAAT (sugars k3 d10 k3, PS) | 3%
CATGGTATTTTTCCGT (sugars k3 d10 k3, PS) | 36%

Same assay, conditions: ASO, MM.1R, 0.666 µM

Sequence | target mRNA inhibition
AGTTTAAGGGTTACGC (sugars k3 d10 k3, PS) | 20%

Same assay, conditions: ASO, MM.1R, 1 µM

Sequence | target mRNA inhibition
AGTTTAAGGGTTACGC (sugars k3 d10 k3, PS) | 4% and 24%
CGCCCAGGACCCGGCT (sugars k3 d10 k3, PS) | -1%
ACCCAAATGTGGAGCT (sugars k3 d10 k3, PS) | 3%
GGCGAGTTGGCACAAT (sugars k3 d10 k3, PS) | 49% and 30%
CTTGATAAAGGCTGAA (sugars kkddddddddddkeke, PS) | 4%
AGGCACATCAATGTTT (sugars kkdddddddddekeke, PS) | 42% and 35%
CCCATCGAATCTGCCC (sugars k3 d10 k3, PS) | -24%
TATTTGTTTGCAAGCT (sugars k3 d10 k3, PS) | 30%
GCAAGTGTCTAAAGTC (sugars k3 d10 k3, PS) | 49% and 53%
GGGATTATATACTGGT (sugars kkdddddddddkdkdk, PS) | 41%
ACACTTTTAGAGAGGA (sugars kddddddddddkekek, PS) | -6%
ACCTCAGTTTGTGAAG (sugars kkddddddddddkeke, PS) | -12%
AGTTCATGTAAAGTCT (sugars kkdddddddddekeke, PS) | 51% and 49%
TGCTTGAGGTTTTCCT (sugars kkdddddddddkekek, PS) | 36%
AGAGGCGACTGCTGAA (sugars k3 d10 k3, PS) | -19%
TACTGCTTGAGGTTTT (sugars kkdddddddddkekek, PS) | 22%

Sequence | target mRNA inhibition
GTGATAGCTGAGCTGA (sugars kddddddddddkekek, PS) | 29%
GATGTGATAGCTGAGC (sugars kddddddddddkekek, PS) | 50%
AGCAGTGATGTCAGGT (sugars k2 d9 e3 k2, PS) | 69% and 56%
CATGGTATTTTTCCGT (sugars k3 d10 k3, PS) | 38% and 48%
AGTGATGTCAGGTTTT (sugars kdddddddddkekeke, PS) | 40%
CTTGATAAAGGCTGAA (sugars kkdddddddddkdkdk, PS) | 1%
TTTATGTTAGCCAATT (sugars kkdddddddddkekek, PS) | 9% and 15%
ACTTGCTAAGTCTTAT (sugars k3 d10 k3, PS) | 13%
ACTTTTAGAGAGGAGA (sugars kdddddddddkekeke, PS) | 17%
AAGCTTGATAAAGGCT (sugars kkdddddddddkdkdk, PS) | -2%
GCATTTTATCATCCGA (sugars kkkdddddddddkeke, PS) | 32%
AGTGTCTAAAGTCCCA (sugars kkdddddddddekeke, PS) | 18% and 19%
GAAGTTTACACTGGAT (sugars kddddddddddkekek, PS) | 27%
GAAGCATTTTATCATC (sugars kkdddddddddekeke, PS) | 6%
CTGGATATGTGGTGTT (sugars k3 d10 k3, PS) | 30%

Same assay, conditions: ASO, MM.1R, 2 µM

Sequence | target mRNA inhibition
AGTTTAAGGGTTACGC (sugars k3 d10 k3, PS) | 28%

Same assay, conditions: ASO, MM.1R, 4 µM

Sequence | target mRNA inhibition
AGTTTAAGGGTTACGC (sugars k3 d10 k3, PS) | 22% and 40%
GGCGAGTTGGCACAAT (sugars k3 d10 k3, PS) | 60%
CATGGTATTTTTCCGT (sugars k3 d10 k3, PS) | 66%

Same assay, conditions: ASO, SK-MEL-28, 4 µM

Sequence | target mRNA inhibition
CTACATTTCTTATGCA (sugars k3 d10 k3, PS) | 39%
AGTTTAAGGGTTACGC (sugars k3 d10 k3, PS) | 63%
CAAACTCCTCAGGGAA (sugars k4 d8 k4, PS) | 17%
CAGACCTTATGCTTGG (sugars k3 d10 k3, PS) | 10%
ATCCTTAATTATGCAG (sugars k3 d10 k3, PS) | 39%
ATAACGGTGTTTCAGA (sugars k3 d10 k3, PS) | 47%
TGGAACAGTAACTTGA (sugars k3 d10 k3, PS) | 12%
TTTACAGCATCTAAGG (sugars k3 d10 k3, PS) | 34%
CAGCAAGTGTCTTCCA (sugars k3 d10 k3, PS) | 64%
GATGCTCAGAATGAAG (sugars k3 d10 k3, PS) | 43%
ACTGAGTGTGCAGTTC (sugars k3 d10 k3, PS) | 36%
GGAACAAAAGGTTCCC (sugars k3 d10 k3, PS) | 12%
ACTCACTAAAGACTAT (sugars k3 d10 k3, PS) | 18%
CACATTAAAGGGTAAG (sugars k3 d10 k3, PS) | -1%
GGACAGACCAGGATTC (sugars k3 d10 k3, PS) | 25%
TGTCACTATGCCTGAA (sugars k3 d10 k3, PS) | 27%
AGGAGGGTTGGCCTGC (sugars k3 d10 k3, PS) | 4%
CATAGCTAGTTCATTC (sugars k3 d10 k3, PS) | 35%
GCAAAAAATATAACGG (sugars k3 d10 k3, PS) | 47%
AACTATAATTGGCACG (sugars k3 d10 k3, PS) | 73% and 59%

Sequence | target mRNA inhibition
TACTAGATTGTAGGAC (sugars k3 d10 k3, PS) | 27%
GCTTACAAAAACTTGG (sugars k3 d10 k3, PS) | 26%
CTTGATAAAGGCTGAA (sugars k3 d10 k3, PS) | 60%
TCCCAAGATCGAGCGG (sugars k3 d10 k3, PS) | 16%
GCCTTCTCGGAACTTT (sugars k3 d10 k3, PS) | 32%
AAAGACAAGTGCCCAT (sugars k3 d10 k3, PS) | 24%
TAGGAAGCACTGGCAT (sugars k3 d10 k3, PS) | 28%
AAGCAAGTGTCTAAAG (sugars k3 d10 k3, PS) | 29%
GTACAGTCCACTCCAC (sugars k3 d10 k3, PS) | 10%
AAGCGCACCGCAGGCG (sugars k3 d10 k3, PS) | 4%
TGTAAGGTCTGAGAGC (sugars k3 d10 k3, PS) | 25%
GCGCACTAAGTGGGCT (sugars k3 d10 k3, PS) | -10%
GGAAAGACAAGTGCCC (sugars k3 d10 k3, PS) | 54%
GTAACTTGACTTGAGA (sugars k3 d10 k3, PS) | 49%
TACAAAACGGACTGGA (sugars k3 d10 k3, PS) | 38%
CCCAAGATCGAGCGGT (sugars k3 d10 k3, PS) | 28%
TGCTAGGACACAGCTG (sugars k3 d10 k3, PS) | 43%
TTCAGCCACGAGGCAC (sugars k3 d10 k3, PS) | 5%
CCTAATCTACAACAAA (sugars k3 d10 k3, PS) | 15%
CACATAACTCAGGCAA (sugars k3 d10 k3, PS) | 37%

Sequence | target mRNA inhibition
TGGCTAGCAGAGGTTC (sugars k4 d8 k4, PS) | 9%
AGCCAAAGTGACTTAA (sugars k3 d10 k3, PS) | 58%
CAAAGAGGGTCACAGG (sugars k3 d10 k3, PS) | 63%
CTAAATTCTAGTTTGC (sugars k3 d10 k3, PS) | 21%
AAGTTTACACTGGATC (sugars k3 d10 k3, PS) | 58%
CCAGGTTAAACAGGAA (sugars k3 d10 k3, PS) | 6%
ACACACCTGACAACCA (sugars k3 d10 k3, PS) | 36%
CCTGTGGTGGAACTCT (sugars k3 d10 k3, PS) | 27%
TGTAACTGAGGACTCA (sugars k3 d10 k3, PS) | -2%
CAAATTCAGGAGAGCC (sugars k3 d10 k3, PS) | 19%
GCTCCACAGCAAGGCC (sugars k3 d10 k3, PS) | 58%
CTACAGATCTCAGCAA (sugars k3 d10 k3, PS) | 18%
GACAGCATAGCATTAT (sugars k3 d10 k3, PS) | 72% and 77%
AAAAATATAACGGTGT (sugars k3 d10 k3, PS) | 24%
ACGATGATAGCTCACC (sugars k3 d10 k3, PS) | 8%
ACCTTAACCAATCCCA (sugars k3 d10 k3, PS) | 71%
TATGGCTAAACCTGGC (sugars k3 d10 k3, PS) | 43%
CTTCTTTATGCGAAGA (sugars k3 d10 k3, PS) | -5%

Biological target: MALAT1
Details: ASO, A431, 0.005 µM

Sequence | target mRNA inhibition
ATTCAAGCTGAACTAT (sugars k3 d10 k3, PS) | 10%
ATCCCTTTACACCTCA (sugars k3 d10 k3, PS) | 36%
AACCGGAGCAGGAAGA (sugars k3 d10 k3, PS) | -16%
TTACCTAAACCCACCC (sugars k3 d10 k3, PS) | 38%
TTATACATCAAGGATG (sugars k3 d10 k3, PS) | 4%
ATAAGCACTTATCCCT (sugars k3 d10 k3, PS) | 50%
CAATGCCTACCGCACA (sugars k3 d10 k3, PS) | 16%
TACCTAAACCCACCCC (sugars k3 d10 k3, PS) | 6%
AAACTTATCTGCGGTT (sugars k3 d10 k3, PS) | 19%
AGGTATGAGCTTCAGA (sugars k3 d10 k3, PS) | 1%
CAACTGGGAATACTCT (sugars k3 d10 k3, PS) | 20%
TCCAATACTTGTCTTA (sugars k3 d10 k3, PS) | 68% and 75%
CCCACGGCCCGCACGG (sugars k3 d10 k3, PS) | 14%
ACTAAAGGCTTCAGTC (sugars k3 d10 k3, PS) | 26%
ACAAAACCCCCGGAAC (sugars k3 d10 k3, PS) | -153%
CATTACAGTTCTTGAA (sugars k3 d10 k3, PS) | 41%
